# PubChem BioAssay AID1645848
# Conditions: buffer; pH 7.4; 6.0 h; 150.0 µM
row,SMILES,solubility kinetic
1,COC(=O)c1ccnc(-c2cc(C(=O)NCCc3ccccc3)ccn2)c1,0.00536 mg/mL
2,O=C(Nc1nc(-c2ccccc2)cs1)c1ccncc1NS(=O)(=O)c1ccc2ccccc2c1,< 0.001 mg/mL
3,O=C(c1ccccc1)N1CCC(C(=O)N2CCC(N3Cc4ccccc4C3=O)CC2)CC1,> 0.043 mg/mL
4,COc1cc2c(c(OC)c1OC)-c1ccc(OC)c(=O)cc1[C@@H](NC(C)=O)CC2,0.021 mg/mL
5,Cc1cnc(-c2ccccc2C(C)C)nc1NCC1CCN(C2COC2)CC1,> 0.056 mg/mL
6,O=C(NC[C@H]1Cn2c(-c3ccc(Cl)cc3)cnc2CO1)C1CCCC1,> 0.036 mg/mL
7,Cc1ccc(NC(=O)N2CCN(c3nc(N)nc4sc(-c5cccnc5)nc34)CC2)cc1,< 0.001 mg/mL
8,Fc1cccc(Nc2nc(-c3ccncc3)nc3ccccc23)c1F,< 0.001 mg/mL
9,Cc1cc(-c2nnc3n2CCCCC3)c(C)n1-c1ccc(C(F)(F)F)cc1,0.0433 mg/mL
10,Cc1ccc(C(=O)Nc2nc3nc(C)cc(=O)n3[nH]2)cc1,> 0.042 mg/mL
11,CC(=O)c1c(C)[nH]c(C(=O)Nc2cccc([S+](=O)([O-])Nc3c(C)cccc3C)c2)c1C,< 0.001 mg/mL
12,NC(=O)C1CCN(c2nc(-c3ccccc3N)cs2)CC1,0.0294 mg/mL
13,Nc1ncnc2c1c(-c1cnc3[nH]ccc3c1)nn2C1CCCC1,> 0.047 mg/mL
14,O=C(Nc1ncc(Cc2ccc(C(F)(F)F)cc2)s1)c1cnc(-c2ccccc2)o1,< 0.001 mg/mL
15,Cc1cc(C)cc(NS(=O)(=O)c2ccc3[nH]cc(C(=O)NCc4ccco4)c(=O)c3c2)c1,0.00287 mg/mL
16,O=C(NCCN1CCOCC1)C1CC(=O)N(c2n[nH]c3cc(Br)ccc23)C1 (centres undefined),0.0325 mg/mL
17,O=C(O)c1ccc(N2C(=O)/C(=C/c3ccc(-c4ccc([N+](=O)[O-])cc4)o3)C=C2c2ccccc2)cc1,0.0314 mg/mL
18,NC(=O)C1CCN(c2nc(-c3ccccc3[N+](=O)[O-])cs2)CC1,> 0.049 mg/mL
19,N#Cc1nc(-c2cccc3ccccc23)oc1Nc1ccccc1,< 0.001 mg/mL
20,Cc1ccc(-c2cc(C(=O)Nc3ccccn3)c3ccccc3n2)cc1,< 0.001 mg/mL
21,COc1cc(CNCCO)cc(Cl)c1OCc1ccc(Cl)cc1Cl.Cl,0.04 mg/mL
22,NC(=O)Nc1cc(-c2ccc(CN3CCOCC3)cc2)sc1C(N)=O,0.0143 mg/mL
23,NC(=O)C1CCN(c2ncc(-c3ccc4c(c3)OC(F)(F)O4)s2)CC1,< 0.001 mg/mL
24,CC(C)(C)c1ccc(S(=O)(=O)c2cnc(SCC(=O)Nc3ccc(F)c(Cl)c3)[nH]c2=O)cc1,0.0584 mg/mL
25,COc1cccc(Cn2c(=O)n(-c3cccc(Cl)c3C)c(=O)c3c4c(sc32)CN(C(C)=O)CC4)c1,< 0.001 mg/mL

row,SMILES,solubility kinetic
1,Fc1cc(Nc2nc(-c3ccncc3)nc3ccccc23)ccc1-c1cccc(OC(F)(F)F)c1,< 0.001 mg/mL
2,Cc1cc(C)c2nc(-c3ccccn3)cc(C(=O)Nc3ccc(S(=O)(=O)Nc4onc(C)c4C)cc3)c2c1,0.012 mg/mL
3,Cc1ccc(S(=O)(=O)Nc2cnccc2C(=O)Nc2ccc(-n3cncn3)cc2)cc1,> 0.064 mg/mL
4,Cc1ccnc(NC(=S)N2CCN(c3ccc(Cl)c(Cl)c3)CC2)c1,< 0.001 mg/mL
5,CN(C)CCCn1cc(C2=C(c3c[nH]c4ccccc34)C(=O)NC2=O)c2ccccc21,> 0.041 mg/mL
6,Cc1noc(C)c1C(=O)N1CCC2(CC1)CCN(C(c1ccccc1)c1ccccc1)CC2,0.022 mg/mL
7,NC(=O)C1CCN(c2nccc(-c3ccc4c(c3)OCCO4)n2)CC1,> 0.05 mg/mL
8,O=C(Nc1ccc(C(=O)N2CCCC2)cc1)c1ccccc1F,> 0.046 mg/mL
9,CC1(C)C(=O)NC2=C1C(=O)C(=O)c1ccccc12,> 0.036 mg/mL
10,O=C(Cc1ccc(Cl)c(Cl)c1)Nc1ccc(S(=O)(=O)Nc2nncs2)cc1,> 0.065 mg/mL
11,COC(=O)c1ccccc1NC(=O)c1ccccc1OC(F)F,< 0.001 mg/mL
12,CC(=O)c1ccc(-c2csc(N3CCC(C(N)=O)CC3)n2)cc1,0.00611 mg/mL
13,COc1ccc(S(=O)(=O)N(C(=O)C(C)C)c2ccc3oc(=O)sc3c2)cc1,0.00881 mg/mL
14,Cc1ccc(C(=O)Nc2ccc3oc(-c4cccnc4)nc3c2)cc1[N+](=O)[O-],< 0.001 mg/mL
15,O=[S+]([O-])(Nc1ccccc1)c1ccc(NCc2cccc(C(F)(F)F)c2Cl)cc1,< 0.001 mg/mL
16,Cc1cc(C)nc(NC(=S)N2CCN(c3nccc(C(F)(F)F)n3)CC2)c1,0.00721 mg/mL
17,Cc1ccccc1Nc1c(-c2ccccc2O)nc2sccn12,< 0.001 mg/mL
18,Nc1ncnc(N2CCc3ccccc32)c1[N+](=O)[O-],< 0.001 mg/mL
19,FC(F)(F)c1cccc(N2CCN(C(=S)Nc3nccc4ccccc34)CC2)c1,< 0.001 mg/mL
20,O=C1Nc2ccccc2/C1=C\c1cc(F)c(O)c(F)c1,> 0.04 mg/mL
21,Cc1ccc(-c2nc(C)c(C(=O)Nc3ccc4c(c3)C(=O)N3CCC[C@H]3C(=O)N4)s2)cc1,0.00488 mg/mL
22,COc1cccc(CNCCSc2nnnn2C)c1OCc1ccc(Cl)cc1Cl,0.0166 mg/mL
23,CCC[C@H](NC(=O)/C(C#N)=C/c1cccc(Br)n1)c1ccccc1,< 0.001 mg/mL
24,O=C(Nc1nc(-c2ccccc2)cs1)c1ccncc1NS(=O)(=O)c1ccc(C(F)(F)F)cc1,< 0.001 mg/mL
25,COc1ccccc1Nc1ccnc(N2CCN(C(=O)c3ccc(C)cc3)CC2)n1,0.00264 mg/mL

row,SMILES,solubility kinetic
1,Nc1ncccc1-c1nc2ccc(-c3ccccc3)nc2n1-c1ccc(C2(N)CCC2)cc1,> 0.064 mg/mL
2,Cc1cccc(C)c1C(=O)Nc1cccc([S+](=O)([O-])N(C)C)c1,0.0414 mg/mL
3,CC(C)(O)CCc1ccc(OCc2cc(-c3cccc(OC(F)F)c3)c3ncccc3c2)cc1,< 0.001 mg/mL
4,COc1ccc(NC(=O)c2[nH]c(C)c(C(C)=O)c2C)cc1S(=O)(=O)N1CCCCC1,0.0342 mg/mL
5,COc1ccc(-c2nc(CS(=O)CC(=O)N3CCC4(CC3)OCCO4)c(C)o2)cc1 (centres undefined),> 0.064 mg/mL
6,CC(=O)Nc1cccc(-c2csc(Nc3cc(C)ccn3)n2)c1,< 0.001 mg/mL
7,Cc1cc(-c2nnc3n2CCCCC3)c(C)n1-c1ccc(Br)cc1,0.0274 mg/mL
8,CN1CC(CNC(=O)OCc2ccccc2)C[C@H]2c3cccc4c3c(cn4C)CC21 (some centres undefined),0.0384 mg/mL
9,CCc1ccc(NC(=O)c2[nH]c(C)c(C(C)=O)c2C)cc1S(=O)(=O)Nc1cccc(C#N)c1,0.00167 mg/mL
10,CCN1CCN(C(=O)c2cc(-c3ccc(F)cc3)c3nncn3n2)CC1,> 0.052 mg/mL
11,COc1cc2c(cc1NC(=O)COc1ccc(Cl)cc1)oc1ccccc12,< 0.001 mg/mL
12,O=C(NC1CCCc2c1cnn2-c1ccc(F)cc1F)c1ccc(C2(C(F)(F)F)N=N2)cc1 (centres undefined),< 0.001 mg/mL
13,O=c1[nH]c(N2CCOCC2)nc2c1CCN(Cc1cc(Cl)ccc1F)CC2,0.0286 mg/mL
14,CCOc1ccc(NC(=O)CSC2=Nc3ccccc3C3=NC(CC(=O)NCc4cccs4)C(=O)N23)cc1 (centres undefined),0.0238 mg/mL
15,COC(=O)CNC(=O)c1nc(-c2ccc(F)cc2)c2ccccn12,< 0.001 mg/mL
16,CC(=O)c1c(C)[nH]c(C(=O)Nc2cccc([S+](=O)([O-])Nc3ccncc3)c2)c1C,> 0.061 mg/mL
17,Cc1cccc(C)c1Nc1c(-c2cccs2)nc2ncccn12,0.00344 mg/mL
18,O=C1NCc2ccc(-c3cc4c(ccn4Cc4cccnc4)c(C4=CCOCC4)n3)cc21,0.054 mg/mL
19,O=C(Cc1nc2ccc(Cl)cc2[nH]1)Nc1ccc(S(=O)(=O)Nc2nccs2)cc1,0.00493 mg/mL
20,CC(C)(C)CN1CCNc2cc(Nc3ccccc3)ncc2C1,0.0385 mg/mL
21,O=C(Nc1nc(-c2ccccc2)cs1)c1ccncc1NS(=O)(=O)c1ccc(F)cc1F,> 0.07 mg/mL
22,Cc1ccc(C(N)=O)cc1Nc1nccc(-c2cn(C(C)C)c3cnccc23)n1,0.0452 mg/mL
23,CCOc1ccccc1C(=O)Nc1cccnc1C(=O)Nc1cccc(S(=O)(=O)C(F)(F)F)c1,< 0.001 mg/mL
24,CC(C)Oc1ccc(CNC(=O)C2CCN(C(=O)N3CCOc4ccc(Cl)cc43)CC2)cc1,0.00914 mg/mL
25,Cc1nc(NCc2ccco2)nc2c1C(=O)CC(C)C2 (centres undefined),> 0.04 mg/mL

row,SMILES,solubility kinetic
1,CCN(CC)S(=O)(=O)c1ccc(N2CCOCC2)c(NC(=O)c2[nH]c(C)c(C(C)=O)c2C)c1,0.00385 mg/mL
2,O=C(Nc1ccc(S(=O)(=O)Nc2nccs2)cc1)c1ccncc1,0.0195 mg/mL
3,Cc1ccc(NC(=O)NCC2CCN(Cc3cccc(Cl)c3)CC2)cc1Cl,< 0.001 mg/mL
4,O=c1c(-c2cccs2)ccc2n1C[C@H]1C[C@@H]2CN(C2CCOCC2)C1,> 0.079 mg/mL
5,CCOc1ccc(CCNC(=O)c2cc3sccc3n2Cc2ccncc2)cc1OCC,0.00418 mg/mL
6,Cc1cc(NS(=O)(=O)c2ccc(NC(=O)Cc3ccc(Cl)c(Cl)c3)cc2)n(C)n1,> 0.067 mg/mL
7,Cc1ccc(S(=O)(=O)Nc2ncccc2C(=O)Nc2nc(-c3ccccc3)cs2)cc1,< 0.001 mg/mL
8,O=C(Nc1nnc(-c2ccco2)o1)c1ccc(Cl)cc1,0.0282 mg/mL
9,CC(C)c1ccccc1-c1ncc(F)c(NCC2CCN(c3cccnc3)CC2)n1,0.00906 mg/mL
10,Clc1ccc2ncc(-c3cccc(NC4CCNC4)n3)n2c1 (centres undefined),> 0.046 mg/mL
11,O=C(NCc1cccnc1)c1nc(-c2ccc(Cl)nc2)c2cnccn12,0.00469 mg/mL
12,O=C(Cc1ccc(Cl)c(Cl)c1)Nc1ccc(S(=O)(=O)Nc2cccc(O)c2)cc1,< 0.001 mg/mL
13,CCC(CC)c1cc([C@H]2CN3CC[C@H]2C[C@@H]3CNC(=O)COc2ccccc2)nc(-c2ccncc2)n1,> 0.074 mg/mL
14,CCOc1ccc(-c2csc(N3CCC(C(N)=O)CC3)n2)cc1,0.011 mg/mL
15,COC(=O)CNC(=O)c1nc(-c2ccc([S+](C)(=O)[O-])cc2)c2ccccn12,0.00227 mg/mL
16,CCCN1C(CC(C)C)=NS(=O)(=O)c2cc(NC(=O)c3cccs3)ccc21,< 0.001 mg/mL
17,O=C(Nc1cn[nH]c1-c1nc2ccc(CN3CCOCC3)cc2[nH]1)NC1CC1,> 0.038 mg/mL
18,CNc1oc(-c2ccc(-c3ccccc3)cc2)nc1C#N,< 0.001 mg/mL
19,O=c1[nH]c(C2CCCN(CC3CCCCC3)C2)nn1-c1ccc(Cl)cc1 (centres undefined),< 0.001 mg/mL
20,Cc1nn2c(c1-c1ccccc1Oc1ccccc1)N(Cc1ccccc1O)CCC2,0.0139 mg/mL
21,C[C@@H]1Cc2c([nH]c3cc(Cl)c(F)cc23)[C@]2(N1)C(=O)Nc1ccc(Cl)cc12,0.0133 mg/mL
22,NC(=O)COc1ccc(C2CC(=O)Nc3n[nH]c(Nc4ccccc4)c32)cc1 (centres undefined),0.0417 mg/mL
23,Cc1cc(-c2ccc(C)c(S(=O)(=O)NCC3CCN(Cc4ccc(F)cc4)CC3)c2)on1,0.0405 mg/mL
24,O=C(NCc1ccccc1)c1cn2cc(-c3ccccc3)sc2n1,< 0.001 mg/mL
